According to patent publication US10662451B2, “Microorganisms and methods for the coproduction 1,4-butanediol and gamma-butyrolactone” (priority 2009, dated 2020):

Columns and labels:
[1] = tested on: branched chain alpha-ketoacid decarboxylase (BCKA); conditions: cited from earlier work
[2] = biological target: T1, adh1 from Geobacillus thermoglucosidasius M10EXG (Geobacillus sp. M10EXG, UniProt Q6RS93); assay: ADH enzyme assay of E. coli expressed Adh1 enzyme (084); assay type: biochemical; conditions: reduction by Adh1 enzyme (084) expressed in E. coli
T1 sequence (Q6RS93 1-340): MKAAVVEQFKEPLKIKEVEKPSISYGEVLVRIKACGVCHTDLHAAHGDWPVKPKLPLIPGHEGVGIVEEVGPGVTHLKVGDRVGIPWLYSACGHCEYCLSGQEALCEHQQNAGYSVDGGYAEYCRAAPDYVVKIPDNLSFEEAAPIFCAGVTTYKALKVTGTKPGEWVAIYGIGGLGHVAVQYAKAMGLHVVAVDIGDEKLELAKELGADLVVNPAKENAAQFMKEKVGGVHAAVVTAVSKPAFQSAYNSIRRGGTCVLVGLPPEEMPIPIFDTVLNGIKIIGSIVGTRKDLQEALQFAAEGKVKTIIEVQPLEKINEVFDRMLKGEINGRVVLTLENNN
Method: Alcohol (ADH) and aldehyde (ALD) dehydrogenase was assayed in the reductive direction using a procedure adapted from several literature sources (Durre et al., FEMS Microbiol. Rev. 17:251-262 (1995); Palosaari and Rogers, J. Bacteriol. 170:2971-2976 (1988) and Welch et al., Arch. Biochem. Biophys. 273:309-318 (1989)). The oxidation of NADH is followed by reading absorbance at 340 nm every four seconds for a total of 240 seconds at room temperature. The reductive assays were performed in 100 mM MOPS (adjusted to pH 7.5 with KOH), 0.4 mM NADH, and from 1 to 50 μl of cell extract. The reaction is started by adding the following reagents: 100 μl of 100 mM acetaldehyde or butyraldehyde for ADH, or 100 μl of 1 mM acetyl-CoA or butyryl-CoA for ALD. The Spectrophotometer is quickly blanked and then the kinetic read is started. The resulting slope of the reduction in absorbance at 340 nm per minute, along with the molar extinction coefficient of NAD(P)H at 340 nM (6000) and the protein concentration of the extract, can be used to determine the specific activity.
Multiple alcohol dehydrogenases were screened for their ability to catalyze the reduction of 4-hydroxybutanal to 14-BDO.
The Adh1 enzyme (084) expressed very well from its native gene in E. coli (see FIG. 8A).

[3] = tested on: aminotransferase from Leishmania mexicana; conditions: activity considered 100% on tyrosine; cited from earlier work

Row | Compound | aminotransferase activity [3] [%] | also measured
1 | O=C(O)CCC(=O)C(=O)O [2-Oxoglutarate] |  | decarboxylation activity relative to other branched-chain substrates [1]: 5%
2 | O=CCCCO [Gene 4HB-aldehyde, 4-hydroxybutyraldehyde] |  | Km [2]: 4000 µM
3 | CCCC=O [butyraldehyde] |  | Km [2]: 1200 µM
4 | CC(C)C[C@H](N)C(=O)O [leucine] | 25 | 
5 | CSCC[C@H](N)C(=O)O [methionine] | 25 | 
6 | N[C@@H](Cc1ccccc1)C(=O)O [phenylalanine] | 90 | 
7 | N[C@@H](Cc1c[nH]c2ccccc12)C(=O)O [tryptophan] | 85 | 
8 | N[C@@H](Cc1ccc(O)cc1)C(=O)O [tyrosine] | 100 | 
